Common to all, as to assay type: biochemical
Assay [1] concerns the target T1, AR-NTD (Homo sapiens, UniProt P10275).
T1 construct: a domain of the androgen receptor localised at its N-terminus, amino acids 1-558
T1 sequence (P10275 1-558): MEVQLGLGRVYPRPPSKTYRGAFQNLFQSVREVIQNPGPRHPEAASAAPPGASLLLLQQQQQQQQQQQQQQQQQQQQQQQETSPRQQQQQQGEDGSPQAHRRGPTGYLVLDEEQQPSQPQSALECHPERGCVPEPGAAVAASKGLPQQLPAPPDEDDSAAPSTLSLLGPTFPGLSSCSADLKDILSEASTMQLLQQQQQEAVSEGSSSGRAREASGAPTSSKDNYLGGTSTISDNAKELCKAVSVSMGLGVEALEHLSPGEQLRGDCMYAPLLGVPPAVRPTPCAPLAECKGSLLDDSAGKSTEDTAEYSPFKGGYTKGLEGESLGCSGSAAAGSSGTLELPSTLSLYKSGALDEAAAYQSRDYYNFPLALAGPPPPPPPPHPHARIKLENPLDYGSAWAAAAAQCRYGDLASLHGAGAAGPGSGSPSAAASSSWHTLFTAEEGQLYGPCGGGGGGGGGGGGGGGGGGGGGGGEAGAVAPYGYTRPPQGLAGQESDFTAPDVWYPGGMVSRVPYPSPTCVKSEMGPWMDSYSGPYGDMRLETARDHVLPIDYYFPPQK
Description: Temperature-dependent turbidity shift assay (TSA), critical temperature Tc. Particulars: 500 mM NaCl. The protocol: FIG. 6. a) Apparent absorbance (at λ=350 nm) measurement at increasing temperatures of 30 μM ARNTD in 20 mM Hepes 7.4, 500 mM NaCl, 2 mM TCEP buffer in the absence (grey) and presence of 5 eq of EPI-001 (red) or BADGE (green). Dashed lines indicate condensation onset and calculated Tc values are depicted in the insert. b) Tc obtained using the TSA assay of AR-NTD at different concentrations in 20 mM Hepes 7.4, 500 mM NaCl, 2 mM TCEP buffer in the absence (grey) and presence of 5 eq of EPI-001 (red) or BADGE (green). Mean values of 3 independent measurements and the standard deviation are plotted.
To quantify the effects of EPI-001 on the AR-NTD phase separation, we implemented a temperature-dependent turbidity shift assay (TSA). In this assay we measure the sample turbidity as a reporter of condensation and determine the temperature at which a given sample demixes, the Critical Temperature. When droplets are formed, they scatter light and cause an abrupt increase in turbidity. Therefore, values above 0 absorbance units (AU) in the TSA assay indicate condensation. We measure turbidity as the apparent absorbance at a wavelength in which the absorption of the other components in the sample is minimal, in our case 350 nm. Addition of 5 equivalents (eq) of EPI-001 to a 30 μM AR-NTD and 500 mM NaCl sample lowered the Tc of the AR-NTD by 10° C. (FIG. 5a). […]

For assay [2], the target named is T1, AR-NTD. Description: Screening with the condensation (TSA) assay, percentage of shift versus reference shift. Particulars: screening concentration 100 μM; negative reference DMSO; mean of 3 measurements. The protocol:
FIG. 7. […] First two bars show data points corresponding to the controls that are used to calculate the activity: Negative reference (DMSO), Positive reference (EPI-001 at 200 μM). […] Mean values of 3 measurements and the standard deviation are plotted.
In this sense, in FIG. 7 the first two bars show data points corresponding to the controls that are used to calculate the activity: • Negative reference—DMSO • Positive reference—EPI-001 at 200 μM
Briefly, in order to quantitatively rank the tested compounds with regards to their efficacy to enhance the AR-NTD condensation in vitro and compare it to that of EPI-001, we measured the cloud point temperature (Tc) of each of the samples at constant protein concentration (100 μM). Then, we calculated the percentage of shift caused by the compound in comparison to the reference shift, the one caused by 200 μM EPI-001. Next, we plotted the normalised shift versus the compound concentration.

Assay [3] deals with T1, AR-NTD. Description: Screening with the condensation assay, amplitude of the absorbance as parameter. Particulars: screening concentration 100 μM; references DMSO and EPI-001 at 200 μM; mean of 3 measurements. On the procedure: FIG. 9. Results of screening for molecules using the condensation assay with amplitude of the absorbance as a parameter determining the activity of tested molecules. First two bars show data points corresponding to the controls that are used to calculate the activity: negative reference (DMSO), positive reference (EPI-001 at 200 μM). The rest of the bars corresponds to the activity of three screened molecules at a screening concentration 100 μM. […] Mean values of 3 measurements and the standard deviation are plotted.
Please note that, with reference to this aspect of the invention, the inventors have shown that this parameter could also be used to select hits (see FIG. 9).

Consider `CC(C)(c1ccc(OCC2CO2)cc1)c1ccc(OCC2CO2)cc1` (stereo not drawn) [BADGE], for which the “enhancement of AR-NTD condensation at all protein concentrations tested (left arm of phase diagram)” value in assay [1] (5 eq of compound, various AR-NTD concentrations) is “not”. Further, in assay [1] (5 equivalents of compound, 30 μM AR-NTD, absorbance at 350 nm), the “lowering of the Tc of the AR-NTD” value came out at 3 °C. Also, the “hit classification by activity (percentage of Tc shift relative to 200 μM EPI-001), cut-off 25%” value in assay [2] was “non-hit”. In addition, the “hit classification by activity based on amplitude of the absorbance, cut-off 25%” value in assay [3] is “inactive”.
For `CC(C)(c1ccc(OC[C@H](O)CNS(C)(=O)=O)cc1)c1cc(Cl)c(OC[C@H](O)CCl)c(Cl)c1` [EPI-7170], in assay [2], the “hit classification by activity (percentage of Tc shift relative to 200 μM EPI-001), cut-off 25%” value is listed as “hits”. In assay [3], the “hit classification by activity based on amplitude of the absorbance, cut-off 25%” value is “hits”.
